These results are taken from US10450566B2, “Compounds for inducing anti-tumor immunity and methods thereof” (Cornell University, priority 2013, dated 2019).

What all share (format): cell-based, mouse
For experiment [1], the system named is tDCs. The experiment can be described thus: Intracellular lipid content of tDCs by BODIPY 493/503 staining and flow cytometry. The conditions noted are these: tDCs with 25% cell-free ovarian cancer ascites, 24h, Bodipy493/503. How it is done:
FIG. 9G: graphically depicts the intracellular lipid content of tDCs incubated in vitro with 25% cell-free ovarian cancer ascites supernatants in the presence of the indicated inhibitors. Intracellular lipid content was assessed 24h later via Bodipy493/503 staining. Data are representative of 3 independent experiments with similar results. #P<0.05 compared with control tDC incubated in the absence of cell-free ascites supernatants. *P<0.05 compared with ascites-exposed tDC but left untreated.
(§1) Murine recombinant cytokines were purchased from Peprotech. Cobalt chloride, Tunicamycin (used at 1 μg/ml), Tiron (used at 100-500 μM) and Vitamin E (α-tocopherol, used at 50-100 μM) were from Sigma. DCFDA staining was utilized for intracellular ROS detection (Abcam). Purified 4-HNE was obtained from Cayman Chemical and 4-HNE-protein adducts in ascites samples and DCs were detected and quantified through competitive ELISA (Cell Biolabs). TOFA (Cayman Chemical) was used at a final concentration of 5 μg/ml to inhibit fatty acid synthesis in DCs by blocking the synthesis of malonyl-CoA by acetyl-CoA carboxylase. The IRE-1α-specific inhibitor 4μ8c (Millipore) was used at a final concentration of 10 μM.
Intracellular lipid content in DCs was evaluated via flow cytometry using 4,4-Difluoro-1,3,5,7,8-Pentamethyl-4-Bora-3a,4a-Diaza-s-Indacene (BODIPY 493/503, Life Technologies) as previously reported (Herber et al., 2010). […] Cells were washed twice with 1×PBS and stained with 500 μl of BODIPY 493/503 at […] in PBS for 15 min at room temperature in the dark. Cells were washed twice and analyzed by flow cytometry. BODIPY 493/503 staining was detected in the PE channel. For intracellular cytokine staining, 5×10^6 cells isolated from malignant peritoneal wash samples of ovarian cancer-bearing mice were stimulated for 6h in 10% FBS complete RPMI containing PMA (Calbiochem), lonomycin (Calbiochem) and Brefeldin A (BioLegend). […] Flow cytometry data was analyzed using FlowJo version 9 or 10.

Experiment [2] has as its system XBP1. The experiment can be described thus: XBP1 splicing and ER stress/lipid gene expression in naïve sDCs by RT-PCR/RT-qPCR. How it is done: as §1
Total RNA from human samples was isolated using the miRVANA miRNA isolation Kit (Life Technologies). RNA from mouse samples was isolated using the Qiazol reagent (Qiagen). […] of RNA were used to generate cDNA using the High Capacity cDNA Reverse Transcription Kit (Life Technologies). Human and mouse Xbp1 splicing assays were performed as described (Lee et al., 2003a; Martinon et al., 2010) using conventional Reverse Transcription PCR (RT-PCR) and primers shown in Table 1. Gene expression analysis was done via Reverse Transcription quantitative PCR (RT-qPCR) using a Stratagene Mx3005 instrument and SYBR green I (Life Technologies). […] All primers used in this study are described in Table 1.
One goal of the present invention was to investigate how the tumor microenvironment influences the functional status of XBP1 in DCs. In particular, one aim of the present invention was to investigate whether cancer-derived factors could participate in triggering ER stress and XBP1 activation in tumor-infiltrating DCs, and determine whether this process could impact the detrimental function of these innate immune cells in hosts with ovarian cancer. […] In particular, naïve sDCs were isolated and stimulated for 24h with cytokines (e.g., IL-10, TGF-β, VEGFα, KC, CCL3, IL-6) at concentrations ranging from 5 ng/ml to 25 ng/ml (FIG. 3A-D). Cells were also exposed for 24 hours to increasing concentrations of cobalt chloride (CoCl2), a chemical inducer of the HIF1α pathway that mimics low oxygen conditions (Piret et al. 2002) (FIG. 3E-F). Splicing and upregulation of XBP1 was determined by RT-qPCR analysis (FIG. 3).
(§2) Whether these reactive aldehyde byproducts could trigger ER stress in DCs was investigated. […] Accordingly, intracellular 4-HNE-protein adducts were also readily found in tDCs isolated from these malignant samples (FIG. 4D). 4-HNE generation in mouse tDCs exposed to cell-free ovarian cancer ascites decreased upon exposure to the common antioxidant Vitamin E (FIG. 4E).
(In qPCR the cycle at which signal appears reflects the starting amount.)

The subject of experiment [3] is 4-HNE-protein adducts. Put plainly: 4-HNE-protein adducts in DCs by competitive ELISA. The procedure: as §1, §2
Experiment [4] has as its system tDCs. Put plainly: In vitro antigen presentation: OVA-pulsed tDCs cocultured with CFSE-labeled OT-1 T cells. The conditions noted are these: wild type tDC pre-treated, full-length OVA, cell-free malignant ascites. How it is done:
For in vitro antigen presentation experiments, tDC or sDC were sorted from the peritoneal cavity or spleen of XBP1^f/f or XBP1^f/f CD11c-Cre female mice bearing ID8-Defb29/Vegf-A ovarian tumors for 4 weeks (FIG. 1). tDCs were pulsed for overnight 50 μg/ml of full-length endotoxin-free OVA (SIGMA, Grade VII) in the presence or absence of Vitamin E (50 μg/ml) in media containing 25% cell-free ovarian cancer ascites supernatants. DCs were washed twice and cocultured for 3 days with CFSE-labeled CD8^+ T cells immunopurified from OT-1 mice at a 1:10 (DC to T cell) ratio, as previously described (Scarlett et al., 2009).

Where [5] appears, read: naïve sDCs exposed for 3h to increasing amounts.

`Cc1cc(=O)oc2c(C=O)c(O)ccc12` [4μ8c]: in experiment [1], the “intracellular lipid content of tDCs” value is “restricted the observed ascites-induced lipid biogenesis”.
For the compound `CCCCCC(O)/C=C/C=O` (stereo not drawn) [4-HNE, 4-hydroxy-trans-2-nonenal], in experiment [2] (setting [5]), the “BiP and CHOP gene expression (general ER stress response markers)” value is on record as “robust induction”; the ERdj4 gene expression result is reported as “upregulation”; the “splicing of the Xbp1 mRNA” value is given as “rapidly triggered splicing of the Xbp1 mRNA”. Also, the “expression of lipid biosynthetic genes Agpat6, Fasn and Lpar1” value in experiment [2] (naïve sDCs stimulated for 3h) was “rapidly upregulated”. Also, in experiment [3] (naïve sDCs, increasing concentrations of purified 4-HNE), the “formation of intracellular 4-HNE-protein adducts” value is given as “efficiently formed covalent adducts with intracellular proteins”.
Turning to `CCCCCCCCCCCCCCOc1ccc(C(=O)O)o1` [TOFA], the “intracellular lipid content of tDCs” value in experiment [1] is on record as “prevented”.
For `Cc1c(C)c2c(c(C)c1O)CC[C@@](C)(CCC[C@H](C)CCC[C@H](C)CCCC(C)C)O2` [Vitamin E, α-tocopherol], the “4-HNE generation (intracellular 4-HNE-protein adducts) in tDCs” value in experiment [3] (mouse tDCs exposed to cell-free ovarian cancer ascites) is on record as “decreased”. For the same compound, the “intracellular lipid content of tDCs” value in experiment [1] is “reduced intracellular lipid content”. The “antigen-presenting capacity (expansion of OT-1 T cells)” value in experiment [4] was “phenocopied the enhanced antigen-presenting capacity exhibited by XBP1-deficient tDCs”.
